Read-outs that look alike come from different tables or passages of the source.

Broadly, the IC50 is the concentration at which inhibition is half-maximal.

One assay has as its system NCI-H1299 cells. The assay is described as follows: MTT based cell viability assay on NCI-H1299 cells. The note with it: read-out: IC50, growth inhibition on NCI-H1299 cells. How it is done:
Determination of the Cell Growth Inhibiting Activity of 6-(2,6-dichlorophenyl)-2-((4-(4-methylpiperazin-1-yl)phenyl)amino)imidazo[1,2-b]pyrimido[4,5-d]pyridazin-5(6H)-one and Analogs on NCI-H1299 Cells Using a MTT Based Cell Viability Assay
The thawed NCI-H1299 cells were cultured and passaged to the third generation, and the growth state was good and the confluence was about 90%, which began to be used in the experiment. The NCI-H1299 cells were digested with trypsin, centrifuged at 800 rpm for 5 min, the supernatant was discarded, resuspended with fresh culture medium, and counted. 1000 Cells are seeded to each well of a 96-well plate. The cells are incubated at 37° C. in a 5% CO2 cell culture incubator overnight. The tested sample (including the tested compound and the reference compound AZD1775) was diluted continuously to 8 concentrations (the last concentration was negative control of DMSO) with a 1:3 and 1:10 dilution in DMSO respectively: 10 μM, 3.3 μM, 1 μM, 0.33 μM, 0.1 μM, 0.033 μM, 0.01 μM, 0 μM (the final concentration of DMSO was 1%). 5 μL of each concentration was added to 120 μL of culture medium (25 times diluted), and the mixture was shaken well. The overnight cells were taken and the culture medium was removed, 195 μL of fresh culture medium was added to each well, and 5 μL of diluted culture medium containing the corresponding concentration of the tested sample was added respectively, and the culture plate was then placed in the 5% CO2 cell culture incubator at 37° C. for 3 d. After removing the original solution and adding 100 μL of fresh serum-free DMEM culture medium containing MTT (0.5 mg/mL) per well, the culture was continued. The original solution was removed after 4 hrs and 100 μl DMSO was added to each well. The 96-well cell culture plates were shaken away from light for 10 min and readed in a multifunctional reader at 552/630/690 nm to give absorption values (OD values). The data were analyzed using a graphic software (Graph Pad Prism 5.0) and the inhibitory activity of the compound on cell proliferation was plotted in terms of cell survival and compound concentration. The IC50 values were fitted by the S-shaped dose-response curve equation as follows: Y=100/(1+10^(Log C−Log IC50)), where C was the concentration of testing compounds.

A further assay concerns LoVo cells. The assay is described as follows: MTT based cell viability assay on LoVo cells. The conditions noted are these: read-out: IC50, growth inhibition on LoVo cells. How it is done:
Determination of the Cell Growth Inhibiting Activity of 6-(2,6-dichlorophenyl)-2-((4-(4-methylpiperazin-1-yl)phenyl)amino)imidazo[1,2-b]pyrimido[4,5-d]pyridazin-5(6H)-one and Analogs Thereof on LoVo Cells Using a MTT Based Cell Viability Assay
The thawed LoVo cells were cultured and passaged to the third generation, and the growth state was good and the confluence was about 90%, which began to be used in the experiment. The LoVo cells were digested with trypsin, centrifuged at 800 rpm for 5 min, the supernatant was discarded, resuspended with fresh culture medium, and counted. 6000 Cells are seeded to each well of a 96-well cell culture plate. The cells were incubated at 37° C. in a 5% CO2 cell culture incubator overnight. The tested sample (including the tested compound and the reference compound AZD1775) was diluted continuously to 8 concentrations (the last concentration was negative control of DMSO) with a 1:3 and 1:10 dilution in DMSO respectively: 10 μM, 3.3 μM, 1 μM, 0.33 μM, 0.1 μM, 0.033 μM, 0.01 μM, 0 μM (the final concentration of DMSO was 1%). 5 μL of each concentration was added to 120 μL of culture medium (25 times diluted), and the mixture was shaken well. The overnight cells were taken and the culture medium was removed, 195 μL of fresh culture medium was added to each well, and 5 μL of diluted culture medium containing the corresponding concentration of the tested sample was added respectively, and the culture plate was then placed in the 5% CO2 cell culture incubator at 37° C. for 3 d. After removing the original solution and adding 100 μL of fresh serum-free DMEM culture medium containing MTT (0.5 mg/mL) per well, the culture was continued. The original solution was removed after 4 hrs and 100 μl DMSO was added to each well. The 96-well cell culture plates were shaken away from light for 10 min and readed in a multifunctional reader at 552/630/690 nm to give absorption values (OD values). The data were analyzed using a graphic software (Graph Pad Prism 5.0) and the inhibitory activity of the compound on cell proliferation was plotted in terms of cell survival and compound concentration. The IC50 values were fitted by the S-shaped dose-response curve equation as follows: Y=100/(1+10^(Log C−Log IC50)), where C was the concentration of testing compounds.

Another assay deals with Wee1 kinase (h) (Homo sapiens, UniProt P30291). The assay is described as follows: Wee1 kinase (h) detection method, [γ-33P]-ATP filter assay. The assay is classed as biochemical. The note with it: 10 μM ATP, 40 minutes at room temperature. Here is the method: Wee1 kinase (h) was incubated with 20 mM Tris/HCl pH 8.5, 0.2 mM EDTA, 500 μM […], 10 mM MgAcetate and 10 μM [γ-^33P]-ATP. Then the stock solution of all compounds under test with 50× concentration in 100% DMSO was added to make the final concentration of 1/0.1/0.01 μM, and then mixed the mixture well. The reaction was initiated by the addition of the Mg/ATP mix. After incubation for 40 minutes at room temperature, the reaction was stopped by the addition of phosphoric acid to a concentration of 0.5%. 10 μL of the reaction liquor was then spotted onto a P30 filtermat and washed four times in 0.425% phosphoric acid and once in methanol prior to drying and scintillation counting. Each compound sample was duplicated in duplicate. The negative control was lack of all the components of Wee1 enzyme, and the positive was addition of 30% phosphoric acid to terminate the reaction. The Wee1 inhibitor AZD1775 was detected at 10/0.01 μM at the same experiment condition.
Wee1 kinase (h), sequence (P30291 whole entry): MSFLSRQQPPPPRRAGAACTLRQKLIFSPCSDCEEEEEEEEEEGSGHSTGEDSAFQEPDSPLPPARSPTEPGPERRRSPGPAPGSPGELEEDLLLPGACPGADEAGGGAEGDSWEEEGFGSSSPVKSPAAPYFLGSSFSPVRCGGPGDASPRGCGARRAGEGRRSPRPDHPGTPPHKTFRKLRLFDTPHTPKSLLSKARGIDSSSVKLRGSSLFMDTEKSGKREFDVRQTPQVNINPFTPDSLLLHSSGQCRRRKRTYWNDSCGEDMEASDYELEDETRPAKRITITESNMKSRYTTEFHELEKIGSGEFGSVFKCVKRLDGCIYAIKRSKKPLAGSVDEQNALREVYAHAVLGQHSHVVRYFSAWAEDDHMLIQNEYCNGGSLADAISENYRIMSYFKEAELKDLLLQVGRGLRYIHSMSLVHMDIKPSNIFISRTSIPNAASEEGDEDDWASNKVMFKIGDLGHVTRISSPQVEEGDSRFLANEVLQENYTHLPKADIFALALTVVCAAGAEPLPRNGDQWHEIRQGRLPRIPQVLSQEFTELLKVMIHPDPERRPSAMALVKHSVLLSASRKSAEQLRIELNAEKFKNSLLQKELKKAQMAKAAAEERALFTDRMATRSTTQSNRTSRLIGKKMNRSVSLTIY

The mark [1] stands for this setting: Homo sapiens, 72 h, NCI-H1299 cells, 3 d, MTT.
The mark [2] stands for this setting: Homo sapiens, 72 h, LoVo cells, 3 d, MTT.

`CCc1cn2c(n1)c1nc(Nc3ccc(N4CCC(N(C)C)CC4)c(C)c3)ncc1c(=O)n2-c1c(Cl)cccc1Cl` [Example 61, 6-(2,6-dichlorophenyl)-2-((3-methyl-4-(4-(dimethylamino)piperidin-1-yl)phenyl)amino)-9-ethylimidazo[1,2-b]pyrimido[4,5-d]pyridazin-5(6H)-one]: the IC50 with NCI-H1299 cells (setting [1]) came to 126 nM; with LoVo cells (setting [2]), 352 nM. Further, the “Inh. (%) of Wee1 kinase” value on Wee1 kinase (h) (C 0.01 μm) came out at 12%.

Regarding `Cc1cc(Nc2ncc3c(=O)n(-c4c(Cl)cccc4Cl)n4ccnc4c3n2)ccc1N1CCNCC1` [Example 26, 6-(2,6-dichlorophenyl)-2-((3-methyl-4-(piperazin-1-yl)phenyl)amino)imidazo[1,2-b]pyrimido[4,5-d]pyridazin-5(6H)-one], the IC50 with NCI-H1299 cells (Homo sapiens, NCI-H1299, 72 h) came out at 268 nM; in the assay on LoVo cells (Homo sapiens, LoVo, 72 h), 201 nM. The “Inh. (%) of Wee1 kinase” value at Wee1 kinase (h) (C 0.01 μm) turned out to be 27%.

Regarding `Cc1cc(Nc2ncc3c(=O)n(-c4c(Cl)cccc4Cl)n4cc(C(C)C)nc4c3n2)ccc1N1CCC(N(C)C)CC1` [Example 62, 6-(2,6-dichlorophenyl)-2-((3-methyl-4-(4-(dimethylamino)piperidin-1-yl)phenyl)amino)-9-isopropylimidazo[1,2-b]pyrimido[4,5-d]pyridazin-5(6H)-one], the IC50 with NCI-H1299 cells (setting [1]) turned out to be 197 nM; in the assay with LoVo cells (setting [2]), 620 nM. The “Inh. (%) of Wee1 kinase” value at Wee1 kinase (h) (C 0.01 μm) turned out to be 7%.

For `Cc1cc(Nc2ncc3c(=O)n(-c4c(C)cccc4Cl)n4ccnc4c3n2)ccc1N1CCN(C)CC1` [Example 16, 6-(2-chloro-6-methylphenyl)-2-((3-methyl-4-(4-methylpiperazin-1-yl)phenyl)amino)imidazo[1,2-b]pyrimido[4,5-d]pyridazin-5(6H)-one], the values for the IC50 with NCI-H1299 cells (setting [1]) and in the assay with LoVo cells (setting [2]) were 365 nM and 424 nM, respectively. The entries for the “Inh. (%) of Wee1 kinase” value at Wee1 kinase (h) (C 0.01 μm), on Wee1 kinase (h) (C 0.1 μm) and at Wee1 kinase (h) (C 1 μm) were 22%, 73% and 93%, respectively.

Turning to `Cc1cc(Nc2ncc3c(=O)n(-c4c(F)cccc4Cl)n4ccnc4c3n2)ccc1N1CCN(C)CC1` [Example 9, 6-(2-chloro-6-fluorophenyl)-2-((3-methyl-4-(4-methylpiperazin-1-yl)phenyl)amino)imidazo[1,2-b]pyrimido[4,5-d]pyridazin-5(6H)-one], the IC50 with NCI-H1299 cells (setting [1]) came to 284 nM; in the assay on LoVo cells (setting [2]), 213 nM. Besides, the “Inh. (%) of Wee1 kinase” value is reported as 14% on Wee1 kinase (h) (C 0.01 μm) and 97% on Wee1 kinase (h) (C 1 μm).

Consider `Cc1cc(Nc2ncc3c(=O)n(-c4c(Cl)cccc4Cl)n4ccnc4c3n2)cc2c1C(C)(C)CN(C)C2` [Example 43, 6-(2,6-dichlorophenyl)-2-((2,4,4,4,5-tetramethyl-1,2,3,4-tetrahydroisoquinolin-7-yl)amino)imidazo[1,2-b]pyrimido[4,5-d]pyridazin-5(6H)-one], for which the IC50 with NCI-H1299 cells (NCI-H1299 cells, 3 d, MTT) turned out to be 175 nM; in the assay with LoVo cells (LoVo cells, 3 d, MTT), 476 nM. Also, the “Inh. (%) of Wee1 kinase” value on Wee1 kinase (h) (C 0.01 μm) amounted to 9%.

Regarding `Cc1cc(Nc2ncc3c(=O)n(-c4c(F)cccc4Cl)n4ccnc4c3n2)cc(F)c1N1CCN(C)CC1` [Example 22, 6-(2-chloro-6-fluorophenyl)-2-((3-fluoro-5-methyl-4-(4-methylpiperazin-1-yl)phenyl)amino)imidazo[1,2-b]pyrimido[4,5-d]pyridazin-5(6H)-one], the results for the IC50 in the assay on NCI-H1299 cells (setting [1]) and in the assay with LoVo cells (setting [2]) were 376 nM and 138 nM, respectively. The “Inh. (%) of Wee1 kinase” value is reported as 21% at Wee1 kinase (h) (C 0.01 μm) and 95% at Wee1 kinase (h) (C 1 μm).

On to `Cc1cccc(Cl)c1-n1c(=O)c2cnc(Nc3ccc(N4CCN(C)CC4)c(Cl)c3)nc2c2nccn21` [Example 53, 6-(2-chloro-6-methylphenyl)-2-((3-chloro-4-(4-methylpiperazin-1-yl)phenyl)amino)imidazo[1,2-b]pyrimido[4,5-d]pyridazin-5(6H)-one], for which the half-maximal inhibitory concentration (IC50) in the assay with NCI-H1299 cells (setting [1]) came out at 809 nM; in the assay on LoVo cells (setting [2]), 642 nM. Further, the “Inh. (%) of Wee1 kinase” value on Wee1 kinase (h) (C 0.01 μm) is 12%; on Wee1 kinase (h) (C 0.1 μm) it was 69%; at Wee1 kinase (h) (C 1 μm), 94%.

Turning to `CN1CCN(c2ccc(Nc3ncc4c(=O)n(-c5c(F)cccc5F)n5ccnc5c4n3)cc2Cl)CC1` [Example 18, 6-(2,6-difluorophenyl)-2-((3-chloro-4-(4-methylpiperazin-1-yl)phenyl)amino)imidazo[1,2-b]pyrimido[4,5-d]pyridazin-5(6H)-one], the IC50 in the assay with NCI-H1299 cells (setting [1]) amounted to 1080 nM; in the assay on LoVo cells (setting [2]) it was 579 nM. The “Inh. (%) of Wee1 kinase” value on Wee1 kinase (h) (C 1 μm) is given as 87%.

Consider `Cc1cc(Nc2ncc3c(=O)n(-c4c(Cl)cccc4Cl)n4ccnc4c3n2)cc(Cl)c1N1CCN(C)CC1` [Example 29, 6-(2,6-dichlorophenyl)-2-((3-chloro-5-methyl-4-(4-methylpiperazin-1-yl)phenyl)amino)imidazo[1,2-b]pyrimido[4,5-d]pyridazin-5(6H)-one], for which the IC50 in the assay with NCI-H1299 cells (Homo sapiens, NCI-H1299, 72 h) came out at 400 nM; in the assay with LoVo cells (Homo sapiens, LoVo, 72 h), 272 nM. For the same compound, the “Inh. (%) of Wee1 kinase” value on Wee1 kinase (h) (C 0.01 μm) is recorded as 21%; on Wee1 kinase (h) (C 0.1 μm), 65%; at Wee1 kinase (h) (C 1 μm) it was 93%.

Consider `CN1Cc2cc(Nc3ncc4c(=O)n(-c5c(F)cccc5Cl)n5ccnc5c4n3)ccc2C(C)(C)C1` [Example 12, 6-(2-chloro-6-fluorophenyl)-2-((2,4,4-trimethyl-1,2,3,4-tetrahydroisoquinolin-7-yl)amino)imidazo[1,2-b]pyrimido[4,5-d]pyridazin-5(6H)-one], for which the half-maximal inhibitory concentration (IC50) in the assay with NCI-H1299 cells (setting [1]) was 445 nM; with LoVo cells (setting [2]), 818 nM. At Wee1 kinase (h) (C 1 μm), the “Inh. (%) of Wee1 kinase” value is on record as 96%.

For the compound `Cc1cc(Nc2ncc3c(=O)n(-c4c(Cl)cccc4Cl)n4ccnc4c3n2)ccc1N1CCC(N(C)C)CC1` [Example 36, 6-(2,6-dichlorophenyl)-2-((3-methyl-4-(4-(dimethylamino)piperidin-1-yl)phenyl)amino)imidazo[1,2-b]pyrimido[4,5-d]pyridazin-5(6H)-one], the IC50 in the assay with NCI-H1299 cells (Homo sapiens, NCI-H1299, 72 h) is 135 nM; in the assay with LoVo cells (Homo sapiens, LoVo, 72 h) it was 206 nM. The “Inh. (%) of Wee1 kinase” value at Wee1 kinase (h) (C 0.01 μm) is given as 22%; at Wee1 kinase (h) (C 1 μm), 98%.
